Results as given in US7812039B2, “Drugs for chronic pains” (Nicox S.A., priority 2001, dated 2010).

Assays:
Assay type in all cases: in vivo
[1] = test system: Wistar adult rats; assay: Neuropathic pain model, ligature of the right sciatic nerve (Bennett), withdrawal latencies; conditions: 14 days after ligature, percentage of control response
Method: Wistar adult rats weighing about 200 grams were used, in the experimental model described by Bennett G J, Xie Y K, Pain 1988, 33(1): 87-107. The pain response (withdrawal latencies) is determined 14 days after the ligature of the right sciatic nerve. The results obtained are reported in Table 2 and have been expressed as a percentage ratio of the difference between the response from the intact paw and from the injured paw, to the response of the control animals, that have been injected with the carrier and undergone the nerve ligature. The groups were of 10 rats each.

[2] = test system: Swiss male mice; assay: "Paw-licking" test (formalin injected in the paw); conditions: for Number "paw licking" %: 1 h before formalin, counted 15 min, percentage of control group
Method: Four groups of Swiss male mice (20-25 g, Charles River) each formed by 10 animals, received by intraperitoneal injection Gabapentin (90 mg/kg) or the compound of formula (XVI) (Example 3), called NO-Gabapentin at the doses of 50 mg/kg, in a saline solution. The control group received the same volume of saline solution. One hour after the administration of the compound solutions, formalin (10 μl) was injected in the paw. In the 15 minutes subsequent to formalin administration, for each animal, the number of times wherein it licked its paw was counted. The analysis was carried out “in blind”.

[3] = test system: female Sprague-Dawley rats; assay: Motor performance (combined testing system) in spinally-injured rats
Excerpt: (§1) In 6 groups of female Sprague-Dawley rats weighting 200 g, photochemically-induced ischemic spinal cord injury was produced according to methods described by Xu et al. Pain, 1992, 48, 279-290. Spinally-injured rats developed a chronic pain syndrome, including marked mechanical and cold allodynia. The rats were injured 3-6 months before the beginning of the experiment.
(§2) Each group of rats was i.p. treated, respectively, with one of the following compounds using one of the above indicated doses: • NO-gabapentin at doses of 20 mg/Kg (55 μmole/Kg), or 60 mg/Kg (167.21 μmole/Kg), or 100 mg/kg (278.7 μmole/Kg), dissolved in saline, single dose, i. p.); • gabapentin at doses of 30 mg/Kg ([…]) or 100 mg/kg ([…]), dissolved in saline, single dose i. p.); • the control group received the vehicle; The response to cold was tested by spray-applying ethyl chloride on the shaved allodynic skin area at time 0 (i.p. injection) and then at 30′, 120′ and 240′. The response was evaluated according to the following score: • 0=no response; • 1=localized response (skin twitch and contraction), no vocalization; • 2=transient vocalization, moderate struggle; • 3=sustained vocalization and aggression.
The effect of the compounds on motor activity was also evaluated using a combined testing system as described in Hao, J. X. and Xu, X. J., Pain, 1996, 66, 279-286.

[4] = test system: female Sprague-Dawley rats; assay: Cold allodynia (ethyl chloride spray) in spinally-injured rats, acute administration
Excerpt: as §1, §2

[5] = test system: Wistar adult male rats; assay: Acute toxicity in the diabetic animal (streptozocin)
Method: In 50 Wistar adult male rats weighing 165-190 g, diabetes was induced by injection i.v. of a single dose of streptozocin (65 mg/kg in 1 ml/kg buffer citrate at pH 4.5).
After one week the animals were distributed in three groups of 10 rats each and treated per os for three days with daily doses of 100 mg/kg of gabapentin and NO-gabapentin. The controls were treated only with streptozocin.
Death rate was monitored for 7 days from the last treatment.

[6] = test system: female Sprague-Dawley rats; assay: Mechanical allodynia (von Frey hairs, vocalization threshold) in spinally-injured rats, repeated administration; conditions: for vocalization threshold (g) to mechanical stimulation with von Frey hairs: 1 hour after administration
Method: In this experiment the effect of repeated administration of NO-gabapentin was assessed and compared with that of the precursor drug gabapentin in a rat model of neuropathic pain. In 4 groups of female Sprague-Dawley rats weighting 200 g photochemically-induced ischemic spinal cord injury was produced according to methods describe by Xu et al. Pain, 1992, 48, 279-290.
Spinally-injured rats developed a chronic pain syndrome, including marked mechanical and cold allodynia. The rats were injured 3-6 months before the beginning of the experiment. Each of the groups of rats were i.p. treated daily for 10 day, respectively, with 60 mg/kg (167.2 μmole/Kg) of NO-gabapentin and with 30 mg/Kg (175 μmole/Kg) of gabapentin. Controls (two groups) received only the vehicle. Each day the treatment of the animals was made at the same time. During the experiment vocalized thresholds to graded mechanical touch/pressure were tested with von Frey hairs.
During testing, rats were gently restrained in a standing position and the von Frey hair was pushed onto the skin until filament becomes bent. The frequency of stimulation was about 1/s and repeated 5-10 times. The intensity of stimulation (g) which induced consistent vocalization (>75% response rate) is considered as pain threshold. Behavioral testings were carried out before the daily for the control group and 1 hour after administration for the treated groups.

Structure (SMILES): CC(=O)Oc1ccccc1C(=O)Oc1cccc(CO[N+](=O)[O-])c1 [NO-ASA, 2-acetylsalicylic acid (3-nitrooxymethyl)phenyl ester]
- response % ([1]; NO-ASA 100 mg/Kg p.o.): 82%

Structure (SMILES): NCC1(CC(=O)O)CCCCC1 [Gabapentin]
- Number "paw licking" % ([2]; 90 mg/kg i.p.): 80%
- motor performance (score) ([3]; 175 μmole/kg i.p., time 0 min): 20
- motor performance (score) ([3]; 175 μmole/kg i.p., time 30 min): 20
- motor performance (score) ([3]; 175 μmole/kg i.p., time 120 min): 20
- motor performance (score) ([3]; 175 μmole/kg i.p., time 240 min): 20
- motor performance (score) ([3]; 584 μmole/kg i.p., time 0 min): 15
- motor performance (score) ([3]; 584 μmole/kg i.p., time 30 min): 30
- motor performance (score) ([3]; 584 μmole/kg i.p., time 120 min): 30
- motor performance (score) ([3]; 584 μmole/kg i.p., time 240 min): 25
- effect on motor activity, in words ([3]; 100 mg/kg (584 μmole/Kg) i.p.): induced motor impairment and sedation
- response to cold stimulation, score (0-3) ([4]; 175 μmole/kg i.p. single dose, time 0 min): 2
- response to cold stimulation, score (0-3) ([4]; 175 μmole/kg i.p. single dose, time 30 min): 2
- response to cold stimulation, score (0-3) ([4]; 175 μmole/kg i.p. single dose, time 120 min): 2
- response to cold stimulation, score (0-3) ([4]; 175 μmole/kg i.p. single dose, time 240 min): 2
- antiallodynic effect (cold), in words ([4]; 30 mg/Kg (175 μmole/Kg) i.p.): did not produce a significant antiallodynic effect
- lethality % ([5]; 100 mg/kg per os daily for three days, diabetic rats, monitored 7 days from last treatment): 50%
- vocalization threshold (g) to mechanical stimulation with von Frey hairs ([6]; 175 μmole/kg i.p. daily, Day 1): 5 g
- vocalization threshold (g) to mechanical stimulation with von Frey hairs ([6]; 175 μmole/kg i.p. daily, Day 2): 6 g
- vocalization threshold (g) to mechanical stimulation with von Frey hairs ([6]; 175 μmole/kg i.p. daily, Day 4): 70 g
- vocalization threshold (g) to mechanical stimulation with von Frey hairs ([6]; 175 μmole/kg i.p. daily, Day 6): 90 g
- effect on mechanical allodynia, in words ([6]; 30 mg/Kg (175 μmole/Kg) i.p. daily for 10 day): did not produce a significant effect up to the second day
- effect on mechanical allodynia compared with NO-gabapentin, in words ([6]; gabapentin 30 mg/Kg vs NO-gabapentin 60 mg/kg i.p. daily): the effect was lower than that of NO-gabapentin

Structure (SMILES): Cl.NCC1(CC(=O)Oc2cccc(CO[N+](=O)[O-])c2)CCCCC1 [NO-gabapentin, 1-(aminomethyl)cyclohexan acetic acid 3-(nitrooxymethyl)phenyl hydrochloride ester]
- Number "paw licking" % ([2]; 50 mg/kg i.p.): 70%
- inhibition of "paw-licking" compared with starting drug, in words ([2]; NO-gabapentin 50 mg/kg vs Gabapentin 90 mg/kg i.p.): more active than the starting drug
- response to cold stimulation, score (0-3) ([4]; 55.7 μmole/kg i.p. single dose, time 0 min): 2
- response to cold stimulation, score (0-3) ([4]; 55.7 μmole/kg i.p. single dose, time 30 min): 2
- response to cold stimulation, score (0-3) ([4]; 55.7 μmole/kg i.p. single dose, time 120 min): 2
- response to cold stimulation, score (0-3) ([4]; 167.2 μmole/kg i.p. single dose, time 0 min): 2
- response to cold stimulation, score (0-3) ([4]; 167.2 μmole/kg i.p. single dose, time 30 min): 1
- response to cold stimulation, score (0-3) ([4]; 167.2 μmole/kg i.p. single dose, time 120 min): 1
- response to cold stimulation, score (0-3) ([4]; 278.7 μmole/kg i.p. single dose, time 0 min): 2
- response to cold stimulation, score (0-3) ([4]; 278.7 μmole/kg i.p. single dose, time 30 min): 1
- response to cold stimulation, score (0-3) ([4]; 278.7 μmole/kg i.p. single dose, time 120 min): 1
- response to cold stimulation, score (0-3) ([4]; 278.7 μmole/kg i.p. single dose, time 240 min): 1
- duration of significant effect on cold allodynia ([4]; 60 mg/kg (167.21 μmole/Kg) i.p.): 120 min
- duration of significant effect on cold allodynia ([4]; 100 mg/kg (278.7 μmole/Kg) i.p.): 240 min
- effect on cold allodynia, in words ([4]; acute administration, 20, 60 or 100 mg/kg i.p.): alleviated in a dose-dependent way cold allodynia
- death rate with respect to animals treated with gabapentin ([5]; diabetic animals, 100 mg/kg per os for three days): less than half
- vocalization threshold (g) to mechanical stimulation with von Frey hairs ([6]; 167.2 μmole/kg i.p. daily, Day 1): 100 g
- vocalization threshold (g) to mechanical stimulation with von Frey hairs ([6]; 167.2 μmole/kg i.p. daily, Day 2): 200 g
- vocalization threshold (g) to mechanical stimulation with von Frey hairs ([6]; 167.2 μmole/kg i.p. daily, Day 4): 400 g
- vocalization threshold (g) to mechanical stimulation with von Frey hairs ([6]; 167.2 μmole/kg i.p. daily, Day 6): 90 g
- maintenance of significant effect on mechanical allodynia, in words ([6]; 60 mg/kg (167.2 μmole/Kg) i.p. daily): a significant effect was maintained up to day 6
- effect on mechanical allodynia, in words ([6]; 60 mg/kg (167.2 μmole/Kg) i.p. daily for 10 day): alleviated mechanical allodynia following the first administration

Structure (SMILES): CN(C)CCCN1c2ccccc2CCc2ccc(Cl)cc21 [Clomipramine, clomipramine]
- response % ([1]; clomipramine 10 mg/kg i.p.): 72%
